We go through 19 compounds from patent US20240294508A1, “RIP1 MODULATORS INCLUDING AZETIDINE CYCLIC UREAS, PREPARATIONS, AND USES THEREOF” (SIRONAX LTD., priority 2021, published 2024).

The test concerns HT-29 cells. Briefly: HT29 cells 0FBS assay in vitro: TNF-α/SMAC mimetic/zVAD-FMK induced necroptosis, CellTiter-Glo cell viability (RIP1 inhibitory activity). Type of test: cell-based. Conditions: Homo sapiens, FBS free medium, TNF-α (10 ng/ml) + SMAC mimetic (6 uM) + zVAD-FMK (10 μM), 20 hours, geometric mean EC50. From the text: Protocol for HT29 Cells 0FBS Assay In Vitro
• Cell line: HT-29 (ATCC® HTB-38™) • Culture medium: McCOY's 5A, Gibco, Cat No. 16600-082 • FBS, Gibco, Cat No. 10099-141C • Trypsin: Gibco, Cat No. 25200-056 • DMSO: Sigma, Cat No. 67-68-5, 1L • Assay plate: Corning #3903 • Compound dilution plate: Corning #3357 • Inducers: TNFα, GenScript, Cat No. Z01001-50, • SmacM, Cat. No., HY-15989, MedChemExpress (MCE) • Z_VAD FMK, TargetMol, T6013 • Cell Titer-Glo® Luminescent Cell Viability Assay Kit: Promega, Cat No. G7573 • EnVision: PerkinElmer, 2105-0010
2. Cell Seeding of HT-29 Cells
1) HT-29 cells were checked every day to make sure they are healthy and growing as expected. They were split sub-culturing when were approximately 80% confluent.
2) First pre-warm the culture medium of McCOY's 5A medium (Gibco, Cat No. 16600-082) with 10% FBS (Gibco, Cat No. 10099-141C) in 37° C. water bath for at least 30 min.
3) Growing cells to desired level of confluency 80% in a T75 flask, aspirate the medium, and wash with warm PBS two times.
4) Add 2-3 ml fresh warm trypsin (Gibco, Cat No. 25200-056) solution. Transfer the flask to a 37° C. incubator.
5) After 5 minutes, tap the side of the flask, and examine the flask under a microscope for lifting. If necessary, return the cells to the incubator for an additional 5-10 minutes, with occasional tapping, until lifting is complete.
6) Quickly neutralize the trypsin reaction by adding 6-9 ml cell culture medium, then transfer the cells to sterile 15 ml conical tubes. Pellet the cells by centrifugation at 300×g for 7 minutes, then decant the supernatant.
7) Resuspend the cells in fresh cell culture medium. Do cell counting with hemocytometer.
8) Seed 100 μl of 5,000 cells into each well of the sterile 96-well cell culture plate (Corning 3903) and culture overnight at 37° C. with 5% CO2.
3. Compounds Titration and Treatment of HT-29 Cells
1) All batches of compounds (CPDs0 (e.g., compound 1-169) were dissolved in DMSO (Dimethyl sulfoxide) as 20 mM stock solution.
2) Take 3 ul 20 mM stock solution of CPDs to […] DMSO and mix well, continue the titration ratio of 1:3 (20 ul CPDs+40 ul DMSO), e.g., to give solutions of CPDS at 6.6 mM, 2.2 mM, etc., till the 10 points end.
3) Take out assay plates with HT-29 cells from incubator, remove all culture medium then wash 1 time with 1×PBS, and change fresh McCOY's 5A medium of FBS free with a cocktail of TNF-α (10 ng/ml), the SMAC mimetic (6 uM) and zVAD-FMK (10 μM) to stimulate the HT-29 cells to increase pRIPK1 levels and necroptosis.
4) Add 0.5 μL of the diluted compound to the corresponding 96-well assay plates.
5) Incubate the assay plates for 20 hours at 37° C. with 5% CO2.
4. Performing Cell Viability Detection of HT-29 Cells after Treated with Compounds
1) The CellTiter-Glo® Luminescent Cell Viability Assay was employed to detect the ATP levels of viable HT-29 cells.
2) Equilibrate the CellTiter-Glo® buffer and the lyophilized substrate to room temperature prior to use.
3) Resuspend the CellTiter-Glo® substrate with CellTiter-Glo® buffer, mix by gently vortexing to obtain a homogeneous solution.
4) Pipette 20 μl the enzyme/substrate mixture by multi-channel pipette into the 96-well assay plates from step 5) under the Compounds titration and treatment stage.
5) Place the plates on an orbital shaker and mix the contents for 3 minutes to induce cell lysis.
6) Then allow the plates to incubate at room temperature for 10 minutes to stabilize luminescent signal.
7) Read and record luminescence signal with EnVision.
8) The geometric mean EC50 of the compounds were calculated from 10 points response dose with duplicate. In Table 2, activity is provided as follows: +++=0.1 nM≤EC50<100 nM; ++=100 nM≤EC5 1000 nM; […].
As for `Cc1cnc(C2CC=NN2C(=O)N2CC(Oc3cc(-c4c(C)cnn4C)ncc3F)C2)s1` (stereo not shown) [Compound 94, (3-((2-(1,4-dimethyl-1H-pyrazol-5-yl)-5-fluoropyridin-4-yl)oxy)azetidin-1-yl)(5-(5-methylthiazol-2-yl)-4,5-dihydro-1H-pyrazol-1-yl)methanone], the EC50 is 0.1 to 100 nM.

`Cc1ncc(C2CC=NN2C(=O)N2CC(Oc3nc(-c4c(C)cnn4C)ccc3F)C2)s1` (stereo not shown) [Compound 106, (3-((6-(1,4-dimethyl-1H-pyrazol-5-yl)-3-fluoropyridin-2-yl)oxy)azetidin-1-yl)(5-(2-methylthiazol-5-yl)-4,5-dihydro-1H-pyrazol-1-yl)methanone]: the EC50 lay in the range of 0.1 to 100 nM.

In the case of `COc1ncccc1-c1ncc(F)c(OC2CN(C(=O)N3N=CC[C@H]3c3cc(F)cc(F)c3)C2)n1` [Compound 163, (S)-(5-(3,5-difluorophenyl)-4,5-dihydro-1H-pyrazol-1-yl)(3-((5-fluoro-2-(2-methoxypyridin-3-yl)pyrimidin-4-yl)oxy)azetidin-1-yl)methanone], the EC50 was in the range of 0.1 to 100 nM.

With `O=C(N1CC(Oc2cc(-c3ccc[nH]c3=O)ncc2F)C1)N1N=CC[C@H]1c1cc(F)cc(F)c1` [Compound 167, (S)-4-((1-(5-(3,5-difluorophenyl)-4,5-dihydro-1H-pyrazole-1-carbonyl)azetidin-3-yl)oxy)-5-fluoro-[2,3′-bipyridin]-2′(1′H)-one], the EC50 is 0.1 to 100 nM.

With `Cc1c(C(N)=O)nn(C)c1-c1ccc(F)c(OC2CN(C(=O)N3N=CC[C@H]3c3cc(F)cc(C#N)c3)C2)n1` [Compound 59, (S)-5-(6-((1-(5-(3-cyano-5-fluorophenyl)-4,5-dihydro-1H-pyrazole-1-carbonyl)azetidin-3-yl)oxy)-5-fluoropyridin-2-yl)-1,4-dimethyl-1H-pyrazole-3-carboxamide], the half-maximal effective concentration (EC50) fell in the range of 0.1 to 100 nM.

In the case of `Cn1ncc(C#N)c1-c1cc(OC2CN(C(=O)N3N=CC[C@H]3c3cncc(F)c3)C2)c(F)cn1` [Compound 26, (S)-5-(5-fluoro-4-((1-(5-(5-fluoropyridin-3-yl)-4,5-dihydro-1H-pyrazole-1-carbonyl)azetidin-3-yl)oxy)pyridin-2-yl)-1-methyl-1H-pyrazole-4-carbonitrile], the EC50 lay in the range of 0.1 to 100 nM.

Take `Cc1cc[nH]c(=O)c1-c1cc(OC2CN(C(=O)N3N=CC[C@H]3c3cc(F)cc(F)c3)C2)c(F)cn1` [Compound 166, (S)-4-((1-(5-(3,5-difluorophenyl)-4,5-dihydro-11H-pyrazole-1-carbonyl)azetidin-3-yl)oxy)-5-fluoro-4′-methyl-[2,3′-bipyridin]-2′(1′H)-one]: the EC50 fell in the range of 100 to 1000 nM.

Consider `Cn1ncc(Cl)c1-c1ncc(F)c(OC2CN(C(=O)N3N=CC[C@H]3c3cc(F)cc(C#N)c3)C2)n1` [Compound 16], for which the EC50 was in the range of 0.1 to 100 nM.

With `Cc1nn(-c2cc(OC3CN(C(=O)N4N=CC[C@@H]4c4cc(F)cc(Cl)c4)C3)c(F)cn2)c(C)c1C(=O)O` [Compound 141, (R)-1-(4-((1-(5-(3-chloro-5-fluorophenyl)-4,5-dihydro-1H-pyrazole-1-carbonyl)azetidin-3-yl)oxy)-5-fluoropyridin-2-yl)-3,5-dimethyl-1H-pyrazole-4-carboxylic acid], the EC50 was 100 to 1000 nM.

Consider `Cn1nccc1-c1cc(OC2CN(C(=O)N3N=CC[C@H]3c3cc(F)cc(C#N)c3)C2)c(F)cn1` [Compound 7, (S)-3-fluoro-5-(1-(3-((5-fluoro-2-(1-methyl-1H-pyrazol-5-yl)pyridin-4-yl)oxy)azetidine-1-carbonyl)-4,5-dihydro-1H-pyrazol-5-yl)benzonitrile], for which the concentration giving a half-maximal response (EC50) is 0.1 to 100 nM.

For `Cc1nn(-c2cc(OC3CN(C(=O)N4N=CC[C@H]4c4cccc(F)c4)C3)c(F)cn2)c(C)c1C(=O)NCCO` [Compound 75, (S)-1-(5-fluoro-4-((1-(5-(3-fluorophenyl)-4,5-dihydro-1H-pyrazole-1-carbonyl)azetidin-3-yl)oxy)pyridin-2-yl)-N-(2-hydroxyethyl)-3,5-dimethyl-1H-pyrazole-4-carboxamide], the EC50 is 0.1 to 100 nM.

With `Cc1c(-c2cc(OC3CN(C(=O)N4N=CCC4c4cc(F)cc(F)c4F)C3)c(F)cn2)nn(C)c1C(N)=O` (stereo not shown) [Compound 110, 3-(5-fluoro-4-((1-(5-(2,3,5-trifluorophenyl)-4,5-dihydro-1H-pyrazole-1-carbonyl)azetidin-3-yl)oxy)pyridin-2-yl)-1,4-dimethyl-1H-pyrazole-5-carboxamide], the EC50 lay in the range of 0.1 to 100 nM.

For the compound `Cc1nn(-c2cc(OC3CN(C(=O)N4N=CC[C@@H]4c4cc(F)cc(Cl)c4)C3)c(F)cn2)c(C)c1C(N)=O` [Compound 134, (R)-1-(4-((1-(5-(3-chloro-5-fluorophenyl)-4,5-dihydro-1H-pyrazole-1-carbonyl)azetidin-3-yl)oxy)-5-fluoropyridin-2-yl)-3,5-dimethyl-1H-pyrazole-4-carboxamide], the EC50 is 100 to 1000 nM.

In the case of `Cn1ccnc1-c1cc(OC2CN(C(=O)N3N=CC[C@H]3c3cncc(F)c3)C2)c(F)cn1` [Compound 37, (S)-(3-((5-fluoro-2-(1-methyl-1H-imidazol-2-yl)pyridin-4-yl)oxy)azetidin-1-yl)(5-(5-fluoropyridin-3-yl)-4,5-dihydro-1H-pyrazol-1-yl)methanone], the EC50 was in the range of 0.1 to 100 nM.

On to `Cc1nn(-c2cc(OC3CN(C(=O)N4N=CC[C@H]4c4ccccc4)C3)c(F)cn2)c(C)c1C(=O)O` [Compound 84, (S)-1-(5-fluoro-4-((1-(5-phenyl-4,5-dihydro-1H-pyrazole-1-carbonyl)azetidin-3-yl)oxy)pyridin-2-yl)-3,5-dimethyl-1H-pyrazole-4-carboxylic acid], for which the EC50 fell in the range of 0.1 to 100 nM.

As for `Cc1c(C#N)nn(C)c1-c1ccc(F)c(OC2CN(C(=O)N3N=CC[C@H]3c3cc(F)cc(C#N)c3)C2)n1` [Compound 56, (S)-5-(6-((1-(5-(3-cyano-5-fluorophenyl)-4,5-dihydro-1H-pyrazole-1-carbonyl)azetidin-3-yl)oxy)-5-fluoropyridin-2-yl)-1,4-dimethyl-1H-pyrazole-3-carbonitrile], the EC50 was in the range of 0.1 to 100 nM.

As for `Cc1nn(-c2cc(OC3CN(C(=O)N4N=CC[C@H]4c4ccccc4)C3)c(F)cn2)c(C)c1S(N)(=O)=O` [Compound 113, (S)-1-(5-fluoro-4-((1-(5-phenyl-4,5-dihydro-1H-pyrazole-1-carbonyl)azetidin-3-yl)oxy)pyridin-2-yl)-3,5-dimethyl-1H-pyrazole-4-sulfonamide], the 50% effective concentration (EC50) is 0.1 to 100 nM.

As to `Cc1cnn(C)c1-c1nc(OC2CN(C(=O)N3N=CC[C@H]3c3cncc(F)c3)C2)sc1C#N` [Compound 152, (S)-4-(1,4-dimethyl-1H-pyrazol-5-yl)-2-((1-(5-(5-fluoropyridin-3-yl)-4,5-dihydro-1H-pyrazole-1-carbonyl)azetidin-3-yl)oxy)thiazole-5-carbonitrile], the EC50 was 0.1 to 100 nM.

Consider `Cc1cnn(C)c1-c1cc(OC2CN(C(=O)N3N=CCC3c3nccs3)C2)c(F)cn1` (stereo not shown) [Compound 92, (3-((2-(1,4-dimethyl-1H-pyrazol-5-yl)-5-fluoropyridin-4-yl)oxy)azetidin-1-yl)(5-(thiazol-2-yl)-4,5-dihydro-1H-pyrazol-1-yl)methanone], for which the EC50 lay in the range of 0.1 to 100 nM.
